Where a name gives a salt, the structure may show the parent alone.
Legend:
α-adrenergic receptor [1] = biological target: T1, α-adrenergic receptor (Rattus norvegicus, UniProt P43140); experiment: isolated rat seminal vesicle assay, in vitro α-adrenergic receptor blocking effect against norepinephrine; conditions: relative to prazosin; isolated rat seminal vesicle, test compound 10 nanograms/ml, norepinephrine agonist
T1 construct: Seminal vesicles were removed and transferred to a shallow disk containing modified Tyrode's solution; from tissue; host or cells: isolated seminal vesicle of male Long Evans rats
T1 sequence (P43140 1-466): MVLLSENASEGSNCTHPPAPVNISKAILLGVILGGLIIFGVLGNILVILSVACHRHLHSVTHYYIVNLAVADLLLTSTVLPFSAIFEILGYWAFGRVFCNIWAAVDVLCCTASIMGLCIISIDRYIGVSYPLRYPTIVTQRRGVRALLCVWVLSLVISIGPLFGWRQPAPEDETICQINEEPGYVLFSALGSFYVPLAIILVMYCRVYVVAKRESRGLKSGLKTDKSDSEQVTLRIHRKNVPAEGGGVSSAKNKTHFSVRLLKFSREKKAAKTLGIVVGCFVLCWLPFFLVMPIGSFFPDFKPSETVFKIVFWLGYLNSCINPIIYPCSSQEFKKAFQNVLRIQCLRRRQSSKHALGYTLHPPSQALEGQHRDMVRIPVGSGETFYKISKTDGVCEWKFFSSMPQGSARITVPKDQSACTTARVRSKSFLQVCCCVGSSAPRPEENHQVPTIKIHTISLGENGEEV
Experimental: (§1) In Table 1, antihypertensive activity was determined by oral administration to spontaneous hypertensive rats, the in vitro α-adrenergic receptor blocking effect was determined according to the following test method.
(§2) Dungan et al, Int. […] Lietch et al, Brit.
(§3) Male Long Evans rats weighing approximately 300 g. were sacrificed by a sharp blow on the head. Seminal vesicles were removed and transferred to a shallow disk containing modified Tyrode's solution. The vesicles were emptied of their contents by squeezing them gently with a pair of forceps. Silk thread (4-0) was attached to both ends of the vesicle and it was suspended in a 20 ml. muscle chamber containing modified oxygenated Tyrode's solution (g./liter: NaCl 8, KCl 0.2, CaCl2 0.26, NaHCO3 1, Na2 HPO4 0.0575, glucose 0.5 and MgCl2 0.02). The bathing fluid was maintained at 37° C. with a thermostatically controlled isolated organ tissue bath. Contractions were recorded isometrically by means of a force displacement transducer and recordings were made with a Beckman RP Dynograph. Norepinephrine (NE) was added to the muscle chamber in volumes ranging from 0.1 to 0.4 ml. with a one ml. syringe attached to a 3 inch 20 gauge needle. NE and test compounds were dissolved in deionized water.
(§4) NE response curves were obtained alone and in the presence of test compounds. NE was allowed to remain in contact with the strip until a maximal contraction was obtained. The strip was then washed with the perfusion fluid for 15-30 seconds and the preparation was allowed to return to base line before a subsequent dose of NE was given. Increasing amounts of NE were injected into the bath in the same manner until a complete dose response was obtained.
(§5) The seminal vesicles used to obtain the control NE dose response were discarded and new preparations were placed in the tissue bath for evaluation of the test compound. The test compound was added directly to the perfursion fluid (10 nanograms/ml.) and the strips were allowed to remain in contact with the bathing media for at least 10 minutes before the NE dose response was determined.
(§6) ED50 values for NE were obtained by regression analysis as described by Finney, Probit. Analysis, 2d Ed., Cambridge (1964). A minimum of 4 strips and at least 4 doses were employed to calculate the regression lines. The ED50 value is defined as the concentration of NE which produces a contraction equal to 50% of the maximal contraction.

α-adrenergic receptor [2] = experiment: as above; conditions: antihypertensive activity ratio (A) over α-adrenergic blocking activity ratio (B)
Experimental: as §1, §2, §3, §4, §5, §6

[3] = system: spontaneous hypertensive rats; experiment: antihypertensive activity by oral administration to spontaneous hypertensive rats; assay type: in vivo, rat; conditions: for ED50 / Antihypertensive Activity Ratio (A): oral, spontaneous hypertensive rat; for ED50: read-out: Antihypertensive ED50 mm Hg; for Antihypertensive Activity Ratio (A): relative to prazosin
Experimental: as §1

humans = conditions: cited from earlier work
patients = conditions: human, in vivo; cited from earlier work

Structure (SMILES): CCOC(=O)Nc1snnc1C(=O)N1CCN(c2nc(N)c3cc(OC)c(OC)cc3n2)CC1 [Example 1, 4-Amino-6,7-dimethoxy-2-[4-(5-ethoxycarbonylamino-1,2,3-thiadiazole-4-carbonyl)-piperazin-1-vl]-quinazoline Hydrochloride]
- α-Adr. Bl. Activity Ratio (B) (α-adrenergic receptor [1]): 0.15
- Ratio A/B (α-adrenergic receptor [2]): 5.0
- reduction in systolic blood pressure ([3]; 24 hours after oral dose of 10 mg./kg., spontaneous hypertensive rats): 22%
- ED50 [3]: 2.8 mg/kg
- Antihypertensive Activity Ratio (A) [3]: 0.75

Structure (SMILES): COc1cc2nc(N3CCN(C(=O)c4csnn4)CC3)nc(N)c2cc1OC.Cl [Example 2, 4Amino-6,7-dimethoxy-2-[4-(1,2,3-thiadiazole-4-carbonyl)piperazin-1-yl]quinazoline Hydrochloride]
- α-Adr. Bl. Activity Ratio (B) (α-adrenergic receptor [1]): 0.27
- Ratio A/B (α-adrenergic receptor [2]): 2.0
- ED50 [3]: 4 mg/kg
- Antihypertensive Activity Ratio (A) [3]: 0.53

Structure (SMILES): COc1cc2nc(N3CCN(C(=O)c4cnns4)CC3)nc(N)c2cc1OC.Cl [Example 3, 4-Amino-6,7-dimethoxy-2-[4-(1,2,3-thiadiazole-5-carbonyl)piperazin-1-yl]quinazoline Hydrochloride]
- α-Adr. Bl. Activity Ratio (B) (α-adrenergic receptor [1]): 0.23
- Ratio A/B (α-adrenergic receptor [2]): 2.3
- ED50 [3]: 4 mg/kg
- Antihypertensive Activity Ratio (A) [3]: 0.53

Structure (SMILES): COc1cc2c(N)nc(N3CCN(C(=O)OCC(C)(C)O)CC3)nc2c(OC)c1OC [Trimazosin]
- antihypertensive strength compared to prazosin (in words) (humans; clinical daily dose approximately 150 to 500 mg. for trimazosin, 1.5 to 15 mg. for prazosin): much weaker drug than prazosin
- antihypertensive activity in humans (in words) (humans; humans): active in humans as an antihypertensive agent

Structure (SMILES): COc1cc2nc(N3CCN(C(=O)c4ccco4)CC3)nc(N)c2cc1OC [prazosin, 2-[4-(2-furoyl)-piperazin-1-yl]-4-amino-6,7-dimethoxyquinazoline, reference compound]
- adverse reactions, recent reports (in words) (patients): severe adverse reactions of postural hypotension in some patients
- ED50 [3]: 2.1 mg/kg
